Measured values: article PMC9138505, “Small Molecule 20S Proteasome Enhancer Regulates MYC Protein Stability and Exhibits Antitumor Activity in Multiple Myeloma” (Biomedicines, 2022)
Several values for one entry are separate records, joined by “and”; a condition that tells them apart may be missing. Identical values can stand only once.

Tested on: RPMI-8226 cells
Experiment: Gene expression profiling, NanoString nCounter PanCancer Pathways Panel, ROSALIND analysis
Format: cell-based, human
Method: RPMI-8226 cells were treated with vehicle or TCH-165 (10 μM) for 4 h. Total RNA was obtained using the mirVana miRNA Isolation Kit, with phenol (Thermofisher Scientific; AM1560; Waltham, MA, USA). Total RNA was quantified by Qubit (Thermofisher Scientific; Q32855; Waltham, MA, USA). and gene expression was evaluated against the nCounter® PanCancer Pathways Panel^TM according to the standard NanoString protocol.
Data were analyzed by ROSALIND® [36] with a hyperscale architecture developed by ROSALIND, Inc. (San Diego, CA, USA). Normalization, fold changes and p-values were calculated using criteria provided by NanoString. ROSALIND follows the nCounter® Advanced Analysis protocol of dividing counts within a lane by the geometric mean of the normalizer probes from the same lane. Housekeeping probes to be used for normalization are selected based on the geNorm algorithm, as implemented in the NormqPCR R library. Fold changes and p-values are calculated using the fast method as described in the nCounter Advanced Analysis 2.0 User Manual. The p-value adjustment is performed using the Benjamini–Hochberg method of estimating false discovery rates (FDR). Clustering of genes for the final heatmap of differentially expressed genes was done using the PAM (Partitioning Around Medoids) method using the fpc R library. Hypergeometric distribution was used to analyze the enrichment of pathways, gene ontology, domain structure and other ontologies. The topGO R library was used to determine local similarities and dependencies between GO terms in order to perform Elim pruning correction. Several database sources were referenced for enrichment analysis, including Interpro [40], NCBI [41], MSigDB [42, 43], REACTOME [44], WikiPathways. Enrichment was calculated relative to a set of background genes relevant to the experiment.

[1] = RPMI-8226 cells, TCH-165 treatment samples 1-3

Structure (SMILES): CCOC(=O)[C@]1(c2ccccc2)N=C(c2ccc(OC)cc2)N(Cc2ccccc2)[C@@H]1c1ccc(NCc2ccccc2)cc1 [TCH-165]
- VEGFC normalized gene expression (RPMI-8226, TCH-165 samples 1-3): 4.571 and 4.699 and 4.731
- VHL normalized gene expression (RPMI-8226, TCH-165 samples 1-3): 9.098 and 9.164 and 9.268
- WEE1 normalized gene expression (RPMI-8226, TCH-165 samples 1-3): 9.934 and 9.744 and 9.778
- WHSC1L1 normalized gene expression (RPMI-8226, TCH-165 samples 1-3): 9.091 and 9.1675 and 9.063
- WHSC1 normalized gene expression (RPMI-8226, TCH-165 samples 1-3): 9.949 and 9.835 and 9.719
- WIF1 normalized gene expression (RPMI-8226, TCH-165 samples 1-3): 5.758 and 4.855 and 4.805
- WNT2B normalized gene expression (RPMI-8226, TCH-165 samples 1-3): 5.308 and 4.427 and 4.528
- WNT2 normalized gene expression (RPMI-8226, TCH-165 samples 1-3): 5.827 and 5.242 and 5.592
- WNT3 normalized gene expression (RPMI-8226, TCH-165 samples 1-3): 5.044 and 4.7789 and 4.9095
- WNT4 normalized gene expression (RPMI-8226, TCH-165 samples 1-3): 4.488 and 3.817 and 3.5707
- WNT5A normalized gene expression (RPMI-8226, TCH-165 samples 1-3): 6.308 and 6.154 and 6.184
- WNT6 normalized gene expression (RPMI-8226, TCH-165 samples 1-3): 4.924 and 4.739 and 4.437
- WNT7A normalized gene expression (RPMI-8226, TCH-165 samples 1-3): 5.208 and 4.962 and 4.9095
- WNT7B normalized gene expression (RPMI-8226, TCH-165 samples 1-3): 3.723 and 3.27 and 3.805
- WNT10B normalized gene expression (RPMI-8226, TCH-165 samples 1-3): 5.259 and 5.27 and 5.211
- WNT11 normalized gene expression (RPMI-8226, TCH-165 samples 1-3): 4.308 and 4.154 and 3.876
- WNT16 normalized gene expression (RPMI-8226, TCH-165 samples 1-3): 4.986 and 4.27 and 4.693
- WT1 normalized gene expression (RPMI-8226, TCH-165 samples 1-3): 4.571 and 4.476 and 4.341
- XPA normalized gene expression (RPMI-8226, TCH-165 samples 1-3): 8.195 and 7.97 and 8.109
- XRCC4 normalized gene expression (RPMI-8226, TCH-165 samples 1-3): 8.283 and 8.506 and 8.426
- ZAK normalized gene expression (RPMI-8226, TCH-165 samples 1-3): 4.793 and 4.2133 and 4.238
- ZBTB16 normalized gene expression (RPMI-8226, TCH-165 samples 1-3): 2.986 and 2.891 and 3.0682
- ZBTB32 normalized gene expression (RPMI-8226, TCH-165 samples 1-3): 4.101 and 4.093 and 3.731
- ZIC2 normalized gene expression (RPMI-8226, TCH-165 samples 1-3): 4.86 and 4.154 and 4.291
- Normalized gene expression, ACVR1C [1]: 4.723 and 4.614 and 4.693
- Normalized gene expression, ALKBH2 [1]: 6.955 and 6.808 and 6.991
- Normalized gene expression, ALKBH3 [1]: 8.467 and 8.37 and 8.417
- Normalized gene expression, AMER1 [1]: 6.704 and 6.569 and 6.56
- Normalized gene expression, APH1B [1]: 6.101 and 5.7789 and 5.991
- Normalized gene expression, ARID1B [1]: 9.42 and 9.304 and 9.241
- Normalized gene expression, ARID2 [1]: 9.514 and 9.28 and 9.287
- Normalized gene expression, ASXL1 [1]: 9.934 and 9.758 and 9.627
- Normalized gene expression, BIRC7 [1]: 4.401 and 4.2133 and 4.0682
- Normalized gene expression, BMP8A [1]: 6.156 and 5.759 and 5.787
- Normalized gene expression, BRIP1 [1]: 8.576 and 8.341 and 8.466
- Normalized gene expression, CACNA2D3 [1]: 2.986 and 2.154 and 2.483
- Normalized gene expression, CACNA2D4 [1]: 4.793 and 4.739 and 4.291
- Normalized gene expression, CACNG6 [1]: 5.101 and 4.093 and 4.653
- Normalized gene expression, CALML6 [1]: 4.986 and 4.996 and 5.038
- Normalized gene expression, CARD11 [1]: 6.55 and 6.729 and 6.472
- Normalized gene expression, CASP12 [1]: 5.208 and 4.891 and 4.653
- Normalized gene expression, CCNB3 [1]: 2.401 and 3.3768 and 3.184
- Normalized gene expression, COL6A6 [1]: 3.986 and 4.324 and 4.184
- Normalized gene expression, COL24A1 [1]: 5.488 and 5.2133 and 5.316
- Normalized gene expression, COL27A1 [1]: 4.986 and 5.154 and 5.098
- Normalized gene expression, CREB3L1 [1]: 3.86 and 3.657 and 3.39
- Normalized gene expression, CREB3L3 [1]: 2.723 and 2.891 and 2.943
- Normalized gene expression, CREB3L4 [1]: 7.001 and 6.678 and 6.702
- Normalized gene expression, CRLF2 [1]: 5.723 and 5.798 and 5.75
- Normalized gene expression, CXXC4 [1]: 6.156 and 6.2133 and 5.858
- Normalized gene expression, DTX3 [1]: 3.986 and 4.2133 and 4.238
- Normalized gene expression, FAAP24 [1]: 7.343 and 7.012 and 7.17
- Normalized gene expression, FBXW7 [1]: 6.571 and 6.488 and 6.528
- Normalized gene expression, GDF6 [1]: 4.101 and 4.657 and 4.0068
- Normalized gene expression, GNG12 [1]: 4.793 and 4.855 and 4.693
- Normalized gene expression, H3F3C [1]: 12.4579 and 12.5235 and 12.4804
- Normalized gene expression, HDAC10 [1]: 8.066 and 7.808 and 7.722
- Normalized gene expression, HDAC11 [1]: 5.156 and 4.927 and 5.291
- Normalized gene expression, HES5 [1]: 6.355 and 5.657 and 5.893
- Normalized gene expression, HHIP [1]: 3.986 and 3.739 and 3.653
- Normalized gene expression, IL22RA1 [1]: 5.156 and 5.0613 and 5.316
- Normalized gene expression, IL22RA2 [1]: 5.445 and 4.817 and 4.437
- Normalized gene expression, IL23R [1]: 4.986 and 4.614 and 4.291
- Normalized gene expression, KMT2C [1]: 9.426 and 9.461 and 9.455
- Normalized gene expression, LAMA1 [1]: 4.986 and 4.27 and 4.184
- Normalized gene expression, MAML2 [1]: 8.948 and 9.039 and 8.92
- Normalized gene expression, NFKBIZ [1]: 7.259 and 6.9093 and 6.832
- Normalized gene expression, NKD1 [1]: 5.445 and 5.3768 and 5.437
- Normalized gene expression, NSD1 [1]: 7.758 and 7.832 and 7.75
- Normalized gene expression, PAK7 [1]: 2.986 and 3.891 and 3.39
- Normalized gene expression, PDGFC [1]: 6.509 and 6.415 and 6.1271
- Normalized gene expression, PDGFD [1]: 4.401 and 4.27 and 4.0068
- Normalized gene expression, PHF6 [1]: 9.829 and 9.914 and 9.8
- Normalized gene expression, PLA2G4E [1]: 3.86 and 4.029 and 4.0682
- Normalized gene expression, PLA2G4F [1]: 4.208 and 4.154 and 3.483
- Normalized gene expression, POLD4 [1]: 8.314 and 8.1355 and 8.194
- Normalized gene expression, PRMT8 [1]: 4.308 and 4.476 and 4.341
- Normalized gene expression, PTCRA [1]: 3.986 and 4.3768 and 4.238
- Normalized gene expression, PTPN5 [1]: 4.571 and 4.476 and 4.39
- Normalized gene expression, SHC4 [1]: 5.571 and 4.891 and 5.0068
- Normalized gene expression, SOX17 [1]: 4.101 and 4.154 and 3.483
- Normalized gene expression, SPRY4 [1]: 5.044 and 5.093 and 5.366
- Normalized gene expression, SUV39H2 [1]: 8.912 and 8.7789 and 8.832
- Normalized gene expression, TBL1XR1 [1]: 13.2408 and 13.1822 and 13.1378
- Normalized gene expression, TCF7L1 [1]: 5.101 and 4.739 and 5.461
- Normalized gene expression, THEM4 [1]: 7.581 and 7.249 and 7.3536
- Normalized gene expression, TNN [1]: 4.986 and 4.7789 and 4.39
- Normalized gene expression, TRAF7 [1]: 10.2015 and 10.0643 and 10.0175
- Normalized gene expression, TSLP [1]: 4.571 and 4.699 and 4.769
- Normalized gene expression, WNT5B [1]: 5.208 and 5.093 and 5.238
- Normalized gene expression, WNT10A [1]: 5.924 and 6.045 and 6.17
